Earlier results, collected in US20230084129A1, “PHARMACEUTICAL COMPOSITION COMPRISING ESOMEPRAZOLE AND SODIUM BICARBONATE HAVING EXCELLENT RELEASE PROPERTIES” (Chong Kun Dang Pharmaceutical Corp., priority 2020, published 2023).

Settings: aqueous solution having a pH of 3 or less

COc1ccc2nc([S@@+]([O-])Cc3ncc(C)c(OC)c3C)[nH]c2c1 [esomeprazole, (S)-5-methoxy-2-[(4-methoxy-3,5-dimethyl-2-pyridinyl)-methyl]sulfinyl-1H-benzimidazole]
degradation half-life: less than 10 minutes
